These results are taken from paper PMC9330653, “Targeting the Ubiquinol-Reduction (Qi) Site of the Mitochondrial Cytochrome bc1 Complex for the Development of Next Generation Quinolone Antimalarials” (Biology, 2022).

One may read the inhibition as the relative decrease from the control value, in per cent. Higher therefore signals strong suppression. Broadly, the IC50 is the point on the concentration scale where inhibition reaches its midpoint. As usually defined, the aqueous solubility is the concentration that dissolves in the medium under given conditions.

Data set [1] deals with T1, Pfbc1 (P. falciparum cytochrome bc1) (Plasmodium falciparum, UniProt Q02768).
T1 sequence (Q02768 1-376): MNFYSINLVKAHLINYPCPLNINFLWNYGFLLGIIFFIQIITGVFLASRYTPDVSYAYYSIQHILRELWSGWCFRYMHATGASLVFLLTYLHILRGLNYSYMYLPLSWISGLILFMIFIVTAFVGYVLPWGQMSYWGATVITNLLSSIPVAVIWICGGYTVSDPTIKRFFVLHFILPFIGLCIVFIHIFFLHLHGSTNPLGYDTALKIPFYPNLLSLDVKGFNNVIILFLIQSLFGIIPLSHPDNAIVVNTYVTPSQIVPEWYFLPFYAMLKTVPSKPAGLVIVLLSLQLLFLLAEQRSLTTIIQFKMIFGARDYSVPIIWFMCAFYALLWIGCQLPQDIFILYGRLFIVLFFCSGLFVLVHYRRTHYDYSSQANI
Put plainly: Pf cytochrome bc1 enzyme inhibition. It counts as biochemical. As to conditions: at 100 nM; single point concentration only, full IC50 not available; measured in this work. An excerpt: Table 1 Inhibition profiles of selected antimalarial compounds against whole cells of Plasmodium falciparum (Pf) (3D7 and TM90C2B strains) and individual mitochondrial enzymes. | column: IC50 (nM) (Pfbc1) *

Another data set has as its target T2, bovine cytochrome bc1 (Bos taurus, UniProt P00157).
T2 construct: Crude mitochondria were isolated from fresh bovine hearts; from tissue; host or cells: bovine heart mitochondria
Put plainly: Bovine cytochrome bc1 activity assay. It counts as biochemical. The note with it: triplicate. The procedure:
Cytochrome bc1 was purified from mitochondria, as previously described. Crude mitochondria were isolated from fresh bovine hearts and solubilized with the addition of dodecyl-maltoside (DDM). The solubilized protein was loaded onto a 50 mL DEAE Sepharose CL6B (GE Healthcare, Uppsala, Sweden) column pre-equilibrated in and washed with three column volumes of 50 mM KPi pH 7.5, 250 mM NaCl, 0.5 mM EDTA, and 0.01% DDM. The bound protein was eluted along a linear gradient from 250 to 500 mM NaCl. Cytochrome bc1 fractions were pooled and concentrated in a centrifugal ultrafilter (MWCO. 100 kDa) and loaded onto a 120 mL Sephacryl S300 column (GE Healthcare, Uppsala, Sweden) equilibrated in and eluted at a flow rate of 0.5 mL/min with 20 mM KMOPS pH 7.2, 100 mM NaCl, 0.5 mM EDTA, 0.01% DDM. Cytochrome bc1 fractions were pooled and concentrated to 40 mg/mL. PEG fractionation with an increasing amount of PEG4000 was used to precipitate cytochrome bc1. […] The inhibitors were dissolved in DMSO at the concentration of 50 mM and 5 μM cytochrome bc1 was incubated with 50 μM inhibitor (10-fold molar excess) at 4 °C for 12 h.
The inhibitors were added to the assay without prior incubation. The reaction was initiated by the addition of 50 μM decylubiquinol (Sigma-Aldrich, St. Louis, MO, USA).

In data set [2] the test system is Plasmodium falciparum 3D7. As to conditions: drug sensitive P. falciparum 3D7 whole cells; cited from earlier work.
The test system of data set [3] is Plasmodium falciparum TM90C2B. The note with it: atovaquone resistant parasite TM90C2B; cited from earlier work.
The target of data set [4] is PfNDH2 (P. falciparum mitochondrial type II NADH: ubiquinone oxidoreductase). As to conditions: cited from earlier work.
On the set-up of data set [5]: method as in doi:10.1039/C5MD00062A. As to conditions: at pH 1; cited from earlier work.
The target of data set [6] is T1, Pfbc1 (P. falciparum cytochrome bc1). As to conditions: cited from earlier work.
The subject of data set [7] is Plasmodium falciparum FCR3A strain. Further details: method as in PMID 23234553. The note with it: FCR3A strain used as atovaquone-resistant parasite (footnote †); read-out: IC50 (nM) (TM90C2B); cited from earlier work.
The mark [8] stands for this setting: single point concentration only, full IC50 not available.

Converted amounts (≈) assume the structure as drawn. Read-outs that look alike come from different tables or passages of the source.

`COc1ccc2c(=O)c(C)c(-c3cncc(-c4ccc(OC(F)(F)F)cc4)c3)[nH]c2c1` [SCR0911]: the inhibition at 0.1 µM in data set [1] stood at 80%; on bovine cytochrome bc1, 9 ± 2%. At 1 µM the inhibition against bovine cytochrome bc1 was 72 ± 5%. Moreover, the IC50 in data set [2] was 12 ± 3 nM; in data set [3] it was 7.2 nM; in data set [4] (setting [8]), above 1000 nM. For the same compound, in data set [5], the aqueous solubility is 7.8 µM (≈ 3.33 µg/mL).
The compound `Cc1c(-c2ccc(Cc3ccc(OC(F)(F)F)cc3)cc2)n(O)c2ccccc2c1=O` [RKA066] displayed an inhibition at 0.1 µM on bovine cytochrome bc1 of 81 ± 4%. This compound had an inhibition at 1 µM against bovine cytochrome bc1 of 93 ± 2%. In addition, the IC50 is 22 ± 0.4 nM in data set [2], 217 ± 18 nM in data set [3], 55 nM in data set [4] and 28 nM in data set [6]. Moreover, the “IC50 (nM) (TM90C2B)” value in data set [3] is listed as “triple-digit nanomolar”.
Consider `COc1cc2[nH]c(C)c(-c3ccc(Oc4ccc(OC(F)(F)F)cc4)cc3)c(=O)c2cc1Cl` [ELQ300], for which the inhibition at 0.1 µM on bovine cytochrome bc1 is 22 ± 5%. The compound further registered an inhibition at 1 µM against bovine cytochrome bc1 of 51 ± 7%. In addition, the IC50 in data set [2] is 2.2 nM; in data set [3], 1.7 nM; in data set [6], 0.56 nM. Also, in data set [5], the aqueous solubility is reported as below 1 µM.
With `Cc1[nH]c(C)c(-c2ccc(Oc3ccc(OC(F)(F)F)cc3)cc2)c(=O)c1Cl` [GW844520], the inhibition at 0.1 µM against bovine cytochrome bc1 is 59 ± 6%. In addition, the inhibition at 1 µM against bovine cytochrome bc1 is 79 ± 3%. Moreover, the IC50 in data set [2] is 5 nM; in data set [7], 2 nM; in data set [4] (setting [8]), above 10000 nM; in data set [6], 2 nM.
Take `Cc1[nH]c2ccccc2c(=O)c1-c1ccc(Cc2ccc(OC(F)(F)F)cc2)cc1` [WDH-1U-4]: the inhibition at 0.1 µM at bovine cytochrome bc1 stood at 7 ± 1%. This compound also displayed an inhibition at 1 µM against bovine cytochrome bc1 of 61 ± 3%. For the same compound, the IC50 is 36 ± 6 nM in data set [2], 5 ± 2 nM in data set [3], 492 nM in data set [4] and below 10 nM in data set [6].
Compound `Cc1[nH]c(CO)c(-c2ccc(Oc3ccc(OC(F)(F)F)cc3)cc2)c(=O)c1Cl` [GSK932121] yielded an inhibition at 0.1 µM at bovine cytochrome bc1 of 65 ± 4%. The compound also returned an inhibition at 1 µM on bovine cytochrome bc1 of 82 ± 5%. The IC50 was 6 nM in data set [2], 6 nM in data set [7], above 10000 nM in data set [4] (setting [8]) and 7 nM in data set [6].
